Measurements from patent US20230333087A1, “METHODS FOR MONITORING PATIENT RESPONSE TO TREATMENT OF RETINAL OXIDATIVE DISEASES” (BioJiva LLC, priority 2022, published 2023).

How the values were obtained:
Type in all cases: in vivo, C57BL/6J mice
[1] = D-DHA substitution rates in plasma, red blood cells and retina of mice on 0.5% w/w D-DHA diet; details: for doubling interval of D-DHA substitution rate: first order kinetics
Excerpt: Mature adult C57BL/6J mice were fed for 78 days with a customized rodent diet containing 0.5% w/w D-DHA and no natural DHA. The animals were sacrificed, and plasma, red blood cells and retinal tissues were dissected at study Days 8, 19, 38, 78, (six animals per time point, 3 males + 3 females). D-DHA + DHA were extracted from samples and derivatized into methyl esters with a mixture of heptane/ toluene (63:37 by volume), and methanol/ dimethoxypropane/ sulfuric acid (85:11:4 by volume) by gentle shaking at 80° C. for 2 hours, followed by separation and drying down of the organic phase under nitrogen. D-DHA + DHA methyl esters were structurally identified and quantified by gas chromatography coupled with a tandem mass spectrometry detector and D-DHA substitution levels (in percent of total DHA) were calculated. The results are represented in Table 1 and graphed in FIG. 1.

[2] = tested on: neural retina mRNA levels; assay: Quantitative PCR of mRNA changes in the neural retina; details: 1 week after injection
Method: Quantitative PCR was used to evaluate mRNA changes in the neural retinas of mice fed with D-DHA or DHA for 4 weeks. Cell-type specific, iron regulating, antioxidant, and inflammation related genes were evaluated at 1 week after iron or saline injections. The mRNA levels of the rod-specific gene rhodopsin (Rho), cone-specific gene cone opsin1 medium wave sensitive and short wave sensitive (Opn1mw and Opn1sw) were measured to assess the stress and differentiation of rod and cone photoreceptors. […] In contrast, there was no change in these mRNAs in the neural retinas of D-DHA/IVT iron mice relative to IVT saline controls (FIG. 9). The mRNA levels of transferrin receptor (Tfrc) which are inversely related to intracellular iron levels, can be used as an indicator of intracellular iron levels. […] These two groups had slightly different Tfrc levels, perhaps as a result of loss of some photoreceptors in the DHA/IVT iron group (FIG. 9). The mRNA levels of antioxidants solute carrier family 7 member 11 (SLC7A11), glutathione peroxidase 4 (GPX4), glutathione S-transferase isoform m1(GSTm1), glutathione synthesis (GSS), catalase (Cat), heme oxygenase 1 (Hmox1), and superoxide dismutase 1 (Sod1) were measured to investigate oxidative stress. […] The mRNA levels of IL1β, IL6 and cluster of differentiation 68 (Cd68) were detected to investigate the retinal inflammation. […] The mRNA levels of Glutathione-synthase (GSS) and IL6 were not increased by IVT iron in mice on either diet (FIG. 9).
Neural retina tissues were isolated as previously described (e.g., M Hadziahmetovic et al. Age-dependent retinal iron accumulation and degeneration in hepcidin knockout mice. Investigative ophthalmology & visual science. Jan. 5, 2011;52(1):109-18).Gene expression changes in the neural retina and purified RPE cells were evaluated. Gapdh was used as an endogenous control. […]

[3] = tested on: iron-induced retinal autofluorescence and degeneration; assay: Iron-induced retinal autofluorescence and degeneration, cSLO and OCT imaging 1 week after intravitreal iron
Method: To evaluate the protective effect of 0.25% D-DHA diet, confocal scanning laser ophthalmoscopy (cSLO) and optical coherence tomography (OCT) were employed for in vivo imaging at 1 week after injections. For the cSLO imaging, both blue autofluorescence (BAF) and near-infra autofluorescence (IRAF) were performed.
Adult male wild-type C57BL/6J mice (Stock No.000664, Jackson Labs, Bar Harbor, ME, USA) were housed in standard conditions under cyclic light (12 h:12 h light-dark cycle). Mice had ad libitum access to water and food. Beginning at 2 mo of age, mice were placed on the AIN93G diet described above, supplemented with 0.25% D-DHA or DHA (control diet) for 1 week, 2 weeks, 3 weeks, or 4 weeks prior to the intravitreal injection. Mice were given an intravitreal injection of 1 µl 0.5 mM ferric ammonium citrate diluted in 0.9% NaCl (saline) (MP Biomedicals LLC, Santa Ana, CA) or
1 µl of saline as control. Intravitreal injections were performed as previously described ^54. Mice were continued on respective diet until their final evaluation. All housing and procedures were performed according to the NIH Guide for the Care and Use of Experimental Animals and approved by the University of Pennsylvania Animal Care and Use Committee.
Mice were given general anesthesia and placed on a platform. Pupils were dilated with 1% tropicamide saline solution (Akorn, Inc., Lake Forest, IL). Optical coherence tomography (OCT) imaging was performed for visualization of the retinal structure by using a Bioptigen
Envisu (R2200, Bioptigen Inc., Durham, NC, USA) coupled to a broadband LED light source (T870-HP, Superlum Diodes, Ltd, Ireland). Confocal scanning laser ophthalmoscopy (cSLO) (Spectralis HRA, Heidelberg Engineering, Franklin, MA, USA) was used for visualization of retinal AF using BluePeak™ or simply blue AF (488 nm excitation) and near-infrared AF (787 nm excitation) imaging modes.

retinal structure = assay: Toluidine blue staining of plastic sections, retinal histology and thickness
Method: Electroretinography was conducted on mice fed with D-DHA or natural DHA for 4 weeks to evaluate retinal function. […] Thus, using this measure, incorporation of D-DHA had no impact on retinal function (FIG. 7A). […] Toluidine blue staining was performed on plastic sections to examine retinal histology.
Plastic sections (3 µm) were cut in the sagittal plane. The third eyelid was used for the orientation when embedding eye cups. Toluidine blue staining on plastic sections was used to evaluate retinal morphology.

D-DHA substitution levels (in percent of total DHA) ([1]; neuroretina, day 8): 20.89%
D-DHA substitution levels (in percent of total DHA) ([1]; neuroretina, day 19): 42.94%
D-DHA substitution levels (in percent of total DHA) ([1]; neuroretina, day 38): 70.74%
D-DHA substitution levels (in percent of total DHA) ([1]; neuroretina, day 78): 92.10%
D-DHA substitution levels (in percent of total DHA) ([1]; plasma, day 8 after first exposure, 0.5% w/w D-DHA diet): 84.78%
D-DHA substitution levels (in percent of total DHA) ([1]; plasma, day 19): 94.17%
D-DHA substitution levels (in percent of total DHA) ([1]; plasma, day 38): 97.34%
D-DHA substitution levels (in percent of total DHA) ([1]; plasma, day 78): 98.43%
doubling interval of D-DHA substitution rate ([1]; plasma): 6 to 7 days
D-DHA substitution levels (in percent of total DHA) ([1]; red blood cells, day 8): 48.24%
D-DHA substitution levels (in percent of total DHA) ([1]; red blood cells, day 19): 72.84%
D-DHA substitution levels (in percent of total DHA) ([1]; red blood cells, day 38): 94.12%
D-DHA substitution levels (in percent of total DHA) ([1]; red blood cells, day 78): 96.65%
doubling interval of D-DHA substitution rate ([1]; red blood cells): ~10 days
doubling interval of D-DHA substitution rate ([1]; retina): 20 to 22 days
Compound: [2H]C([2H])(/C=C\CC)/C=C\C([2H])([2H])/C=C\C([2H])([2H])/C=C\C([2H])([2H])/C=C\C([2H])([2H])/C=C\CCC(=O)OCC [D-DHA, 6,6,9,9,12,12,15,15,18,18-D10-(4Z,7Z,10Z,13Z,16Z, 19Z)-docosa 4,7,10,13,16, 19-hexaenoic acid ethyl ester]
upregulation of antioxidants mRNA (Slc7a11, Gpx4, GSTm1, Cat, Hmox1, Sod1) ([2]; D-DHA/IVT iron eyes): prevented
mRNA levels of Rho, Opn1sw (photoreceptor genes) ([2]; D-DHA/IVT iron relative to IVT saline controls): no change
mRNA levels of IL1β and Cd68 ([2]; D-DHA/IVT iron retinas): not increased
iron induced retinal AF (BAF and IRAF cSLO images) ([3]; 0.25% D-DHA diet for 1, 2, 3 and 4 weeks before iron injection, 1 week after injection): dose-dependent reduction
protective effects (reduction of AF area) ([3]; at >30% retinal D-DHA substitution levels): > 50%
retinal structure in OCT scans ([3]; fed D-DHA for 4 weeks, 1 week after iron injection): complete protection
protection against iron-induced retinal damage ([3]; fed D-DHA for 4 weeks, >50% substitution in neural retina): nearly complete protection
retinal structure (toluidine blue histology) (retinal structure; 1 week after iron injection): complete protection
total retina thickness and outer retina thickness (retinal structure; IVT iron injected eyes, 1 week after injection): significantly protected and not different from saline injected eyes
